The record followed here is US7659293B2, “α-Amino-N-hydroxy-acetamide derivatives” (Novartis AG, priority 2001, dated 2010).

What is called IC50 is the concentration that inhibits the measured activity by half. A higher IC50 goes with weaker potency.

Each structure is given as a SMILES string. Where a name gives a salt, the structure may show the parent alone.

In the test the target is T1, MMP1 (collagenase 1) (Homo sapiens, UniProt P03956).
T1 construct: made in house; host or cells: mouse C127 cells, vector pBPV-MMT, secreted into culture medium
T1 sequence (P03956 100-469): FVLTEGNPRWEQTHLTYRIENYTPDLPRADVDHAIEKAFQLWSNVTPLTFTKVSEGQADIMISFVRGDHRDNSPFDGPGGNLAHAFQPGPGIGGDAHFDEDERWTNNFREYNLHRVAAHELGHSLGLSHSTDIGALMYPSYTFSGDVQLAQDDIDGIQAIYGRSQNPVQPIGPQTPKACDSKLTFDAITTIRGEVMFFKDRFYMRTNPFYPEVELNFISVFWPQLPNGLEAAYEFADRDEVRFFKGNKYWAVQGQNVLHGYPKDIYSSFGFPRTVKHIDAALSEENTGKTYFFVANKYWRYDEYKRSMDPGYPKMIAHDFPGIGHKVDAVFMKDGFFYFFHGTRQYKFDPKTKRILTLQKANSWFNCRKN
The test is described as follows: MMP1 (collagenase 1) fluorogenic substrate inhibition assay. Type of test: biochemical. As to conditions: mean ± SEM of three independent experiments. As to the method: The inhibitory activities of compounds of formula I on MT1-MMP, MMP1 (collagenase 1) and MMP2 (gelatinase A) can be determined as follows:
Stock solutions of substrate (MCA-Pro-Leu-Gly-Leu-Dpa-Ala-Arg-NH2 (SEQ ID NO: 1), C. G. Knight, et al, FEBS lett., 296, 263-266, (1992)), are prepared in 100% DMSO at a concentration 1.0 mM.
Stock solutions of inhibitors are prepared in 100% DMSO. The inhibitor is diluted into the assays from a solution in 100% DMSO, and controls substitute an equal volume of DMSO so that the final DMSO concentration from inhibitor and substrate dilutions in all assays is 6.0%. Assays are performed in assay buffer (150 mM NaCl, 10 mM CaCl2, 50 mM Tris-Cl pH7.5, 0.05% Brij-35) containing 6.0% DMSO once the substrate and inhibitor are diluted into it. […] The fluorescence changes are monitored using an excitation wavelength of 320 nm and an emission wavelength of 340 nm. […] The reaction mixture is preincubated with the inhibitor for 30 min, the reaction is started by the addition of MMP enzyme and the fluorescence intensity is measured for 10 min. […]
C127 cells (ATCC-mouse mammary tumor cell line) are grown in Dulbecco's Modified Essential Medium supplemented with 10% heat inactivated fetal bovine serum and 1× antibiotic-antimycotic solution at 37° C. in a humidified CO2 incubator. […] Media from selected clones are analyzed for collagenase expression by an enzymatic assay. […]

`CN(C)c1ccc(CN(CC(=O)NO)S(=O)(=O)c2ccc(OCC3CC3)cc2)cc1` [Example 2, 2-[(4-Cyclopropylmethoxy-benzenesulfonyl)-(4-dimethylamino-benzyl-amino]-N-hydroxy-acetamide HCl salt] returned an IC50 of 1770 ± 144 nM.
